According to patent US20190276495A1 (priority 2016, published 2019):

What was measured:
BALB/cAJc mice = settings: mouse, in vivo, iv
Balb/c mice = settings: mouse, in vivo, ip

Substance	IgG (anti-MAP antibody in sera) (BALB/cAJc mice)	IgM (anti-MAP antibody in sera) (BALB/cAJc mice)	IgG (anti-MAP antibody in sera) (Balb/c mice)	IgM antibody titer against Ebola 1 (Balb/c mice)
Core-[PEG-FPRCRYVHK]4 [Ebola 2 MAP4]	no increase	no increase		
Core-[PEG-IKKADGSECLP]4 [Ebola 1 MAP4]	increase in IgG was seen only in the 100-μg administration group		no increase	one mouse showed an evident increase, and two mice showed mild increases
